# Reference: patent publication US20100099677A1, “Compounds, Compositions and Methods Comprising Thiazole Derivatives” (Institute for OneWorld Health, priority 2008, published 2010)
# Target: T1, CFTR (Homo sapiens, UniProt P13569)
# T1 construct: results in the phosphorylation and opening of CFTR anion channels; host or cells: Human colonic T84 cells
# Assay: T84 assay (FLIPR membrane potential dye, forskolin/IBMX-stimulated CFTR channel activity)
# Assay type: cell-based
# Details: human colonic T84 cells, average of at least 2 runs unless otherwise indicated
# Description: (§1) For example, Human colonic T84 cells can be acquired from the European Collection of Cell Cultures (ECACC) and grown in standard culture conditions as described by the supplier. On the day before assay 25,000 T84 cells per well are plated into standard black walled, clear bottom 384-well assay plates in standard growth medium consisting of DMEM:F12 with 10% FBS and incubated overnight. On the day of the assay the plates are washed using a standard assay buffer (HBSS with 10 mM Hepes) and incubated for 15 minutes in serum free cell culture medium before the addition of a commercially available membrane potential sensitive fluorescent dye (FLIPR Red membrane potential dye, Molecular Devices Corporation). T84 cells are incubated with the FLIPR Red membrane potential dye for 45 minutes in the presence and absence of test compound before being transferred to a commercially available fluorescence imaging plate reader (FLIPR384, Molecular Devices Corporation). Fluorescence levels are monitored continuously every second for 150 seconds; after an initial 10 second baseline, CFTR channel activity is stimulated through the addition of 10 μM forskolin in the presence of 100 μM of the phosphodiesterase inhibitor iso-butyl-methylxanthine (IBMX). Addition of the forskolin leads to the activation of intracellular adenylyl cylase 1, elevating cAMP levels and results in the phosphorylation and opening of CFTR anion channels. CFTR channel opening causes chloride ion efflux and subsequent depolarization of the cells, which is measured by an increase in fluorescence. CFTR inhibitor compounds prevent cell depolarization and the associated increase in fluorescence.
# as §1, with “Human colonic” for “For example, Human colonic”, “T84 cells are acquired from” for “T84 cells can be acquired from”, “(ECACC) and are grown in” for “(ECACC) and grown in”
# T1 sequence (P13569 whole entry): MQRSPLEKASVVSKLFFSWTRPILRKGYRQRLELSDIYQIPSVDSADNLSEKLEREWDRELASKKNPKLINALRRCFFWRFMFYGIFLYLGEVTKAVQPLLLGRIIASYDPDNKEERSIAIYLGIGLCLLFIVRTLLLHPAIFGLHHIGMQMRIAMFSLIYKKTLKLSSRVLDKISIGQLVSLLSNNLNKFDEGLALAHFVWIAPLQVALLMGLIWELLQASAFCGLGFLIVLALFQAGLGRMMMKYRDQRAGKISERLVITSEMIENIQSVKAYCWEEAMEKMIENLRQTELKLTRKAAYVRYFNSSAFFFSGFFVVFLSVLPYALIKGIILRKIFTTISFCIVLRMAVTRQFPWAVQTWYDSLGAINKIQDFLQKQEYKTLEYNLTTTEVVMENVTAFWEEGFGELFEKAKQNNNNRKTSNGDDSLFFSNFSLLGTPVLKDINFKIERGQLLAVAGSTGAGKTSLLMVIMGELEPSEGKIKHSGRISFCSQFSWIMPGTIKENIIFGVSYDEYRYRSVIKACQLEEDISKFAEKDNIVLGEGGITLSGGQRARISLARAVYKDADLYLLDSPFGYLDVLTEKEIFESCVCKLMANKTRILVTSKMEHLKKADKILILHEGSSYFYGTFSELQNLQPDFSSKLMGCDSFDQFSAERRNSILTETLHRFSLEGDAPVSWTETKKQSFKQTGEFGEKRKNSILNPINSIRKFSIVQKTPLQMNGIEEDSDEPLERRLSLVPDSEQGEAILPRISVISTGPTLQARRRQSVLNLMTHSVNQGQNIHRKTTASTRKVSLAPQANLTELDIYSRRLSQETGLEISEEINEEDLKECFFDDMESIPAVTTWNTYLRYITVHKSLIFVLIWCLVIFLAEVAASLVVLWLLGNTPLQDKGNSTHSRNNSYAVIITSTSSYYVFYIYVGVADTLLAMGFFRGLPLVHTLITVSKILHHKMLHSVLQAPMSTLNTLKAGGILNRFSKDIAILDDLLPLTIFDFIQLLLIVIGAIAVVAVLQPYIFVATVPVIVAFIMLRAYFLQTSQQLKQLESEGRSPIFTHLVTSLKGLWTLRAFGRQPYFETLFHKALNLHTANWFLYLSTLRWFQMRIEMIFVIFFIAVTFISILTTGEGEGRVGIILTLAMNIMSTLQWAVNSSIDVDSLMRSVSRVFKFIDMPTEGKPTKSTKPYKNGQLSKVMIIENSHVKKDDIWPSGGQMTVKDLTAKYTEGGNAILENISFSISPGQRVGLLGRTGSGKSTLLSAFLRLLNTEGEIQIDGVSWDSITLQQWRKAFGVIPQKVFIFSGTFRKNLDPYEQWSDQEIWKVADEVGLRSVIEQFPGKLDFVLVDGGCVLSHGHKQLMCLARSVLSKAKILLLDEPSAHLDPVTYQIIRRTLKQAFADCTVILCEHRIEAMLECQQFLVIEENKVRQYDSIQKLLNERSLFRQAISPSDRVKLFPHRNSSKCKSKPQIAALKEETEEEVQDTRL
row,IC50 [µM],Structure (SMILES)
1,2.56,"O=C(NCc1cccc(OC(F)(F)F)c1)c1nc(-c2cc(Br)c(O)c(Br)c2O)cs1 [Compound 78, 4-(3,5-dibromo-2,4-dihydroxyphenyl)-N-(3-(trifluoromethoxy)benzyl)thiazole-2-carboxamide]"
2,23.9,"O=C(NCc1ccc(Oc2ccccc2)cc1)c1nc(-c2cc(Br)c(O)c(Br)c2)cs1 [Compound 75, 4-(3,5-Dibromo-4-hydroxyphenyl)-N-(4-phenoxybenzyl)thiazole-2-carboxamide]"
3,11.5,"O=C(NCc1ccc(Oc2ccccc2)cc1)c1nc(-c2cc(Br)c(O)c(Br)c2O)cs1 [Compound 79, 4-(3,5-dibromo-2,4-dihydroxyphenyl)-N-(4-phenoxybenzyl)thiazole-2-carboxamide]"
4,12.6,"O=C(c1nc(-c2cc(Br)c(O)c(Br)c2O)cs1)N1CCN(c2cccc(C(F)(F)F)c2)CC1 [Compound 82, (4-(3,5-dibromo-2,4-dihydroxyphenyl)thiazol-2-yl)(4-(3-(trifluoromethyl)phenyl)piperazin-1-yl)methanone]"
5,4.78,"O=C(c1nc(-c2cc(Br)c(O)c(Br)c2O)cs1)N1CCC(Cc2ccccc2)CC1 [Compound 68, (4-Benzylpiperidin-1-yl)(4-(3,5-dibromo-2,4-dihydroxyphenyl)thiazol-2-yl)methanone]"
6,15,"O=C(NCc1cccc(OC(F)(F)F)c1)c1csc(-c2cc(Cl)c(O)c(Cl)c2)n1 [Compound 80, 2-(3,5-Dichloro-4-hydroxyphenyl)-N-(3-(trifluoromethoxy)benzyl)thiazole-4-carboxamide]"
7,4.22,"O=C(NCC(c1ccccc1)c1ccccc1)c1nc(-c2cc(Br)c(O)c(Br)c2O)cs1 [Compound 81, 4-(3,5-dibromo-2,4-dihydroxyphenyl)-N-(2,2-diphenylethyl)thiazole-2-carboxamide]"

# More lines, now with the values behind:
row,Structure (SMILES),IC50 [µM]
1,"O=C(c1nc(-c2cc(Cl)c(O)c(Cl)c2)cs1)N1CCN(c2cccc(C(F)(F)F)c2)CC1 [Compound 74, (4-(3,5-Dichloro-4-hydroxyphenyl)thiazol-2-yl)(4-(3-(trifluoromethyl)phenyl)piperazin-1-yl)methanone]",20
2,"CN(Cc1cccc(C(F)(F)F)c1)C(=O)c1nc(-c2cc(Cl)c(O)c(Cl)c2)cs1 [Compound 67, 4-(3,5-Dichloro-4-hydroxyphenyl)-N-methyl-N-(3-(trifluoromethyl)benzyl)thiazole-2-carboxamide]",4.04
3,"COCCOCCOc1c(-c2csc(C(=O)N3CCC(Cc4ccccc4)CC3)n2)cc(Br)c(O)c1Br [Compound 87, (4-benzylpiperidin-1-yl)(4-(3,5-dibromo-4-hydroxy-2-(2-(2-methoxyethoxy)ethoxy)phenyl)thiazol-2-yl)methanone]",1.73
4,"CCOC(=O)CCCOc1c(-c2csc(C(=O)N3CCC(Cc4ccccc4)CC3)n2)cc(Br)c(O)c1Br [Compound 83, Ethyl 4-(6-(2-(4-benzylpiperidine-1-carbonyl)thiazol-4-yl)-2,4-dibromo-3-hydroxyphenoxy)butanoate]",4.2
5,"O=C(O)CCCOc1c(-c2csc(C(=O)N3CCC(Cc4ccccc4)CC3)n2)cc(Br)c(O)c1Br [Compound 89, 4-(6-(2-(4-Benzylpiperidine-1-carbonyl)thiazol-4-yl)-2,4-dibromo-3-hydroxyphenoxy)butanoic acid]",8.79
6,"O=C(NC(c1ccccc1)c1ccccc1)c1nc(-c2cc(Cl)c(O)c(Cl)c2)cs1 [Compound 69, N-Benzhydryl-4-(3,5-dichloro-4-hydroxyphenyl)thiazole-2-carboxamide]",6.51
7,"O=C(NC(c1ccccc1)c1ccccc1)c1nc(-c2cc(Br)c(O)c(Br)c2)cs1 [Compound 71, N-Benzhydryl-4-(3,5-dibromo-4-hydroxyphenyl)thiazole-2-carboxamide]",9.24
8,"O=C(NCc1ccc(Oc2ccccc2)cc1)c1nc(-c2cc(Cl)c(O)c(Cl)c2)cs1 [Compound 76, 4-(3,5-Dichloro-4-hydroxyphenyl)-N-(4-phenoxybenzyl)thiazole-2-carboxamide]",29.5
9,"O=C(c1nc(-c2cc(Cl)c(O)c(Cl)c2)cs1)N1CCC(Cc2ccccc2)CC1 [Compound 70, (4-benzylpiperidin-1-yl)(4-(3,5-dichloro-4-hydroxyphenyl)thiazol-2-yl)methanone]",8.95
10,"Cc1cccc(COc2c(-c3csc(C(=O)N4CCC(Cc5ccccc5)CC4)n3)cc(Br)c(O)c2Br)n1 [Compound 88, (4-benzylpiperidin-1-yl)(4-(3,5-dibromo-4-hydroxy-2-((6-methylpyridin-2-yl)methoxy)phenyl)thiazol-2-yl)methanone]",15.5
11,"O=C(c1nc(-c2cc(Br)c(O)c(Br)c2)cs1)N1CCC(Cc2ccccc2)CC1 [Compound 72, (4-Benzylpiperidin-1-yl)[4-(3,5-dibromo-4-hydroxyphenyl)thiazol-2-yl]methanone]",11.1
12,"O=C(c1nc(-c2cc(Br)c(O)c(Br)c2OCCN2CCOCC2)cs1)N1CCC(Cc2ccccc2)CC1 [Compound 86, (4-benzylpiperidin-1-yl)(4-(3,5-dibromo-4-hydroxy-2-(2-morpholinoethoxy)phenyl)thiazol-2-yl)methanone]",3.03
13,"O=C(c1nc(-c2cc(Br)c(O)c(Br)c2)cs1)N1CCN(c2cccc(C(F)(F)F)c2)CC1 [Compound 73, (4-(3,5-Dibromo-4-hydroxyphenyl)thiazol-2-yl)(4-(3-(trifluoromethyl)phenyl)piperazin-1-yl)methanone]",12.3
